Measured values as given in US10655183B2, “Carcinoma diagnosis and treatment based on ODC1 genotype” (THE ARIZONA BOARD OF REGENTS ON BEHALF OF THE UNIVERSITY OF …, priority 2014, dated 2020).

Legend:
humans = conditions: low doses of 0.4 g/m^2/day; cited from earlier work
rat-tumor model = conditions: DFMO infusion; cited from earlier work
[1] = tested on: ODC1 +263 G promoter/intron 1 luciferase plasmid; test: ODC1 promoter/intron 1 luciferase reporter transfection in HCT116 cells; format: cell-based, human; conditions: 2 μM NSC176327, 24 h, normalized to time-matched DMSO
Protocol: (§1) HCT116 cells were transfected in 24-well plates. Cells were seeded at 0.1×10^6 cells/well 24 h prior transfection. Each well was transfected with 0.25 μg of each plasmid and 0.025 μg of Renilla-TK plasmid using 2.5 μL Lipofectamine 2000 reagent (Invitrogen) according to the manufacturer's instructions. The Renilla-TK plasmid was purchased from Promega and used as a transfection efficiency control in all promoter-reporter transfection experiments. For the overexpression experiments, ODC1 pGL3-Basic or Enhancer plasmids were co-transfected with the corresponding plasmid: pcDNA 3.0 empty vector, pcDNA3-c-MYC expression vector (Ricci et al., 2004) (Addgene plasmid 16011), full-length pN3-Sp1FL (Sapetschnig et al., 2004) (Addgene plasmid 24543), pN3-empty control (Addgene plasmid 24544), N-terminal mutate pPac-Sp1 (Courey and Tjian, 1988) (Addgene plasmid 12095) and pPac0 empty vector (Courey and Tjian, 1988) (Addgene plasmid 12094). After 5 h of transfection, the medium was replaced with fresh normal medium in the absence of antibiotics. […] Dual luciferase activities were measured using a Turner Designs TD-20/20 luminometer, as described by the manufacturer, and presented as relative luciferase units. Experiments were performed in triplicate, repeated at least twice, and analyzed for statistical significance (P<0.05) using two-sample t-tests (Microsoft Excel). […]

[2] = tested on: ODC1 +263 T promoter/intron 1 luciferase plasmid; test: as above; format: cell-based, human; conditions: 2 μM NSC176327, 24 h, normalized to time-matched DMSO
Protocol: as §1

[3] = tested on: HCT116 colorectal cancer cells; test: HCT116 24 h IC50 and cell viability; format: cell-based, human
COX = conditions: cited from earlier work
[4] = tested on: prostoglandin E2 (PGE2) levels in flat mucosa; conditions: 300 mg/day, one month; cited from earlier work
patients = conditions: human, in vivo; cited from earlier work
[5] = cited from earlier work

SMILES: NCCCC(N)(C(=O)O)C(F)F (racemic) [DFMO, 2-(difluoromethyl)-dl-ornithine]
- toxicity (humans): relatively non-toxic
- decrease in tumor putrescine levels (rat-tumor model): 90%

SMILES: COc1ccc2c(c1)c1c(C)c3cnccc3c(C)c1n2CCCN [NSC176327]
- reduction of ODC1-luciferase reporter expression [1]: 43.6%
- reduction of ODC1-luciferase reporter expression [2]: 47.5%
- IC50 [3]: 2 µM

SMILES: CC1=C(CC(=O)O)c2cc(F)ccc2/C1=C\c1ccc(S(C)(=O)=O)cc1 [Sulindac sulfone]
- COX-inhibitory activity (COX): lacks COX-inhibitory activity

SMILES: CC(C)Cc1ccc(C(C)C(=O)O)cc1 (centres unmarked) [ibuprofen]
- PGE2 levels in flat mucosa [4]: significant decrease

SMILES: CC1=C(CC(=O)O)c2cc(F)ccc2/C1=C\c1ccc([S+](C)[O-])cc1 (centres unmarked) [sulindac, (Z)-5-fluoro-2-methyl-1-((4 (methylsulfinyl)phenyl)methylene) 1H-indene-3-acetic acid]
- patients with mild gastrointestinal effects (patients): ~20%
- patients with skin rash and pruritus (patients): 5%
- fraction of the drug absorbed ([5]; oral administration): about 90%
- time to peak plasma levels ([5]; oral, fasting patients): about 2 h
